In PubChem BioAssay AID2060895 (Molecular Pharmacology Branch, DTP, NCI, 2025):

System: PDC 899932-113-R3-J6 complex spheroid viability
Assay: Anticancer human tumor 899932-113-R3-J6-PDC patient-derived melanoma cell line growth inhibition [RAS]
Conditions: for IC50: curve of first compound; for viability, T/C: stronger effect = lower value
Procedure, shortened: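 Agents were tested in combination matrices in half-log decrements from a top concentration at or near clinical Cmax (10 microM if undetermined). Targets were multi-cell spheroids of tumour lines plus HUVEC and MSC stromal cells.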

[1] = second compound 0.000949 µM, first compound 0.00316 µM
[2] = second compound 0.000949 µM, first compound 0.01 µM
[3] = second compound 0.000949 µM, first compound 0.0316 µM
[4] = second compound 0.000949 µM, first compound 0.1 µM
[5] = second compound 0.000949 µM, first compound 0.316 µM
[6] = second compound 0.000949 µM, first compound 1 µM
[7] = second compound 0.003 µM, first compound 0.00316 µM
[8] = second compound 0.003 µM, first compound 0.01 µM
[9] = second compound 0.003 µM, first compound 0.0316 µM
[10] = second compound 0.003 µM, first compound 0.1 µM
[11] = second compound 0.003 µM, first compound 0.316 µM
[12] = second compound 0.003 µM, first compound 1 µM
[13] = second compound 0.00949 µM, first compound 0.00316 µM
[14] = second compound 0.00949 µM, first compound 0.01 µM
[15] = second compound 0.00949 µM, first compound 0.0316 µM
[16] = second compound 0.00949 µM, first compound 0.1 µM
[17] = second compound 0.00949 µM, first compound 0.316 µM
[18] = second compound 0.00949 µM, first compound 1 µM
[19] = second compound 0.03 µM, first compound 0.00316 µM
[20] = second compound 0.03 µM, first compound 0.01 µM
[21] = second compound 0.03 µM, first compound 0.0316 µM
[22] = second compound 0.03 µM, first compound 0.1 µM
[23] = second compound 0.03 µM, first compound 0.316 µM
[24] = second compound 0.03 µM, first compound 1 µM
[25] = second compound 0.0949 µM, first compound 0.00316 µM
[26] = second compound 0.0949 µM, first compound 0.01 µM
[27] = second compound 0.0949 µM, first compound 0.0316 µM
[28] = second compound 0.0949 µM, first compound 0.1 µM
[29] = second compound 0.0949 µM, first compound 0.316 µM
[30] = second compound 0.0949 µM, first compound 1 µM
[31] = second compound 0.3 µM, first compound 0.00316 µM
[32] = second compound 0.3 µM, first compound 0.01 µM
[33] = second compound 0.3 µM, first compound 0.0316 µM
[34] = second compound 0.3 µM, first compound 0.1 µM
[35] = second compound 0.3 µM, first compound 0.316 µM
[36] = second compound 0.3 µM, first compound 1 µM
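Wherever viability, T/C is given: spheroids exposed to agents for seven days before readout; 100% = DMSO vehicle control wells.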

C=CC(=O)Nc1cc(Nc2nccc(-c3cn(C)c4ccccc34)n2)c(OC)cc1N(C)CCN(C)C + CCn1c(-c2cc(N3CCN(C)CC3)cnc2C(C)OC)c2c3cc(ccc31)-c1csc(n1)CC(NC(=O)C1CC1C)C(=O)N1CCCC(N1)C(=O)OCC(C)(C)C2
IC50 (second compound 0.000949 µM): > 1000 nM | IC50 (second compound 0.003 µM): < 3.16 nM | IC50 (second compound 0.00949 µM): < 3.16 nM | IC50 (second compound 0.03 µM): < 3.16 nM | IC50 (second compound 0.0949 µM): < 3.16 nM | IC50 (second compound 0.3 µM): < 3.16 nM | viability, T/C [1]: 69.1% | viability, T/C [2]: 69.2% | viability, T/C [3]: 67% | viability, T/C [4]: 79.7% | viability, T/C [5]: 76.7% | viability, T/C [6]: 64.3% | viability, T/C [7]: 32.5% | viability, T/C [8]: 28.4% | viability, T/C [9]: 28.7% | viability, T/C [10]: 33.8% | viability, T/C [11]: 31.5% | viability, T/C [12]: 16.9% | viability, T/C [13]: 4.3% | viability, T/C [14]: 3.34% | viability, T/C [15]: 3.46% | viability, T/C [16]: 3.41% | viability, T/C [17]: 2.9% | viability, T/C [18]: 2.5% | viability, T/C [19]: 2.61% | viability, T/C [20]: 2.72% | viability, T/C [21]: 2.62% | viability, T/C [22]: 2.55% | viability, T/C [23]: 2.41% | viability, T/C [24]: 1.43% | viability, T/C [25]: 2.26% | viability, T/C [26]: 2.18% | viability, T/C [27]: 2.56% | viability, T/C [28]: 2.02% | viability, T/C [29]: 1.87% | viability, T/C [30]: 1.11% | viability, T/C [31]: 2.04% | viability, T/C [32]: 2.23% | viability, T/C [33]: 1.88% | viability, T/C [34]: 1.96% | viability, T/C [35]: 1.49% | viability, T/C [36]: 1.11%

O=C(c1ccc(F)c(F)c1Nc1ccc(I)cc1F)N1CC(O)([C@@H]2CCCCN2)C1 + CCn1c(-c2cc(N3CCN(C)CC3)cnc2C(C)OC)c2c3cc(ccc31)-c1csc(n1)CC(NC(=O)C1CC1C)C(=O)N1CCCC(N1)C(=O)OCC(C)(C)C2
IC50 (second compound 0.000949 µM): < 3.16 nM | IC50 (second compound 0.003 µM): < 3.16 nM | IC50 (second compound 0.00949 µM): < 3.16 nM | IC50 (second compound 0.03 µM): < 3.16 nM | IC50 (second compound 0.0949 µM): < 3.16 nM | IC50 (second compound 0.3 µM): < 3.16 nM | viability, T/C [1]: 39.5% | viability, T/C [2]: 11.1% | viability, T/C [3]: 2.22% | viability, T/C [4]: 1.79% | viability, T/C [5]: 0.22% | viability, T/C [6]: 0.2% | viability, T/C [7]: 13.7% | viability, T/C [8]: 2.9% | viability, T/C [9]: 2.47% | viability, T/C [10]: 1.41% | viability, T/C [11]: 0.18% | viability, T/C [12]: 0.12% | viability, T/C [13]: 3.2% | viability, T/C [14]: 2.49% | viability, T/C [15]: 1.79% | viability, T/C [16]: 0.56% | viability, T/C [17]: 0.06% | viability, T/C [18]: 0.13% | viability, T/C [19]: 2.9% | viability, T/C [20]: 2.26% | viability, T/C [21]: 1.17% | viability, T/C [22]: 0.14% | viability, T/C [23]: 0.07% | viability, T/C [24]: 0.11% | viability, T/C [25]: 1.79% | viability, T/C [26]: 1.48% | viability, T/C [27]: 0.57% | viability, T/C [28]: 0.07% | viability, T/C [29]: 0.1% | viability, T/C [30]: 0.13% | viability, T/C [31]: 1.39% | viability, T/C [32]: 1.61% | viability, T/C [33]: 0.46% | viability, T/C [34]: 0.12% | viability, T/C [35]: 0.17% | viability, T/C [36]: 0.17%
